From ChEMBL document CHEMBL1137199, “Estrogen receptor ligands. Part 8: Dihydrobenzoxathiin SERAMs with heteroatom-substituted side chains” (Bioorg Med Chem Lett, 2004) come the findings set out here.

Each structure is given as a SMILES string.

In test [1] the test system is MCF7. Nature of the test: cells. Conditions: Homo sapiens.
The target of test [2] is T1, Estrogen receptor (Homo sapiens, UniProt P03372).
T1 sequence (P03372 whole entry): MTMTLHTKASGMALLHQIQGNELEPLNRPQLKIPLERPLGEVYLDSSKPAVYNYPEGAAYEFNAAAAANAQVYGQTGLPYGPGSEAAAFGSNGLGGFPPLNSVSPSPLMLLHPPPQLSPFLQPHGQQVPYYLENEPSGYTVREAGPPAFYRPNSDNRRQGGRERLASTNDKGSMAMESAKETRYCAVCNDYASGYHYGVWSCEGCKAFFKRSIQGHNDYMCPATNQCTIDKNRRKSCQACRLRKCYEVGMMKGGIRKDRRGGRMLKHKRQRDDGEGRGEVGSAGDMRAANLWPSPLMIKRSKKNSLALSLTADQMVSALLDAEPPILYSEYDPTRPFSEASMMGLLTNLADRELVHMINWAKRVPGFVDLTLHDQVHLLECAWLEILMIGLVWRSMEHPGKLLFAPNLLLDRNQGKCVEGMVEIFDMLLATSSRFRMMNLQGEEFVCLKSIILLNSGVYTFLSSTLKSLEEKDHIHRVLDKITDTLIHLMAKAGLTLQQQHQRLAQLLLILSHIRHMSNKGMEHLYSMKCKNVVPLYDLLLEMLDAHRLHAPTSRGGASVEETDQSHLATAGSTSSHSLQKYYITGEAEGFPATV

For test [3], the target named is Estrogen receptor beta (Homo sapiens, UniProt Q92731).
Sequence of Estrogen receptor beta (Q92731 whole entry): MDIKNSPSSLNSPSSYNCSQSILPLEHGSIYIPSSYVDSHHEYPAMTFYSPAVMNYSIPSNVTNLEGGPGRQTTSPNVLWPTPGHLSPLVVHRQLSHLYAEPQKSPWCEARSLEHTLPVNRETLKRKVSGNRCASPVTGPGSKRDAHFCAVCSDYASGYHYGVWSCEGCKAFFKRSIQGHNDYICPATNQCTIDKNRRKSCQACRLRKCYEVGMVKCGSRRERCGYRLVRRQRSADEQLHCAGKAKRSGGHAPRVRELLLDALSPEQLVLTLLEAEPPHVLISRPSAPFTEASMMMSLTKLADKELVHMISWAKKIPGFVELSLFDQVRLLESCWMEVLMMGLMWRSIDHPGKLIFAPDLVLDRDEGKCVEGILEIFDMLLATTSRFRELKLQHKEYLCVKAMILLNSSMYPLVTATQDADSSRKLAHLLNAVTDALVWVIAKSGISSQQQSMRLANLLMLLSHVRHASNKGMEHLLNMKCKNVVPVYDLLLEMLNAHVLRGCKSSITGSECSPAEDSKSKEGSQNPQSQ

The term IC50 denotes the concentration that gives 50% inhibition. A high value points to lower potency. For `Oc1ccc([C@H]2Sc3cc(O)ccc3O[C@H]2c2ccc(OCCN3CC[C@@H](O)C3)cc2)cc1`, the IC50 was 0.6 nM in test [1], 1.7 nM in test [2] and 81 nM in test [3].

On to `Oc1ccc([C@H]2Sc3cc(O)ccc3O[C@H]2c2ccc(OCCN3CCC(F)(F)CC3)cc2)cc1`, for which the half-maximal inhibitory concentration (IC50) amounted to 42 nM in test [1], 16 nM in test [2] and 275 nM in test [3].

Turning to `Oc1ccc([C@H]2Sc3cc(O)ccc3O[C@H]2c2ccc(OCCN3CCSCC3)cc2)cc1`, the values for the IC50 in test [1], in test [2] and in test [3] were 15.6 nM, 1.5 nM and 72 nM, respectively.

Regarding `OC[C@@H]1CCCN1CCOc1ccc([C@@H]2Oc3ccc(O)cc3S[C@@H]2c2ccc(O)cc2)cc1`, the IC50 in test [1] worked out at 1.9 nM; in test [2], 3.9 nM; in test [3], 81 nM.

`OCC1CCN(CCOc2ccc([C@@H]3Oc4ccc(O)cc4S[C@@H]3c3ccc(O)cc3)cc2)CC1`: the concentration for half-maximal inhibition (IC50) was determined as 11.3 nM in test [1], 2.2 nM in test [2] and 436 nM in test [3].

`Oc1ccc([C@H]2Sc3cc(O)ccc3O[C@H]2c2ccc(OCCN3CCC4(CC3)OCCO4)cc2)cc1`: the IC50 in test [1] was 42.3 nM; in test [2], 2 nM; in test [3] it was 267 nM.

Regarding `NC(=O)C1CCN(CCOc2ccc([C@@H]3Oc4ccc(O)cc4S[C@@H]3c3ccc(O)cc3)cc2)CC1`, the 50% inhibitory concentration (IC50) in test [1] stood at 21 nM; in test [2], 2.2 nM; in test [3] it was 366 nM.

For `OCCC1CCN(CCOc2ccc([C@@H]3Oc4ccc(O)cc4S[C@@H]3c3ccc(O)cc3)cc2)CC1`, the figures for the IC50 in test [1], in test [2] and in test [3] were 42.5 nM, 7.3 nM and 1110 nM, respectively.

With `OC[C@H]1CCCN1CCOc1ccc([C@@H]2Oc3ccc(O)cc3S[C@@H]2c2ccc(O)cc2)cc1`, the results for the half-inhibitory concentration (IC50) in test [1], in test [2] and in test [3] were 3.2 nM, 2 nM and 134 nM, respectively.

As to `O=S1(=O)CCN(CCOc2ccc([C@@H]3Oc4ccc(O)cc4S[C@@H]3c3ccc(O)cc3)cc2)CC1`, the half-inhibitory concentration (IC50) in test [1] came out at 26.3 nM; in test [2], 2 nM; in test [3] it was 247 nM.

For `Oc1ccc([C@H]2Sc3cc(O)ccc3O[C@H]2c2ccc(OCCN3CCC(O)CC3)cc2)cc1`, the IC50 was 7.5 nM in test [1], 1.8 nM in test [2] and 331 nM in test [3].

Regarding `Oc1ccc([C@H]2Sc3cc(O)ccc3O[C@H]2c2ccc(OCCN3CC[C@@H](F)C3)cc2)cc1`, the values for the IC50 in test [1], in test [2] and in test [3] were 3.8 nM, 0.5 nM and 59 nM, respectively.

As to `Oc1ccc([C@H]2Sc3cc(O)ccc3O[C@H]2c2ccc(OCCN3CCC(F)CC3)cc2)cc1`, the results for the IC50 in test [2] and in test [3] were 2.5 nM and 116 nM, respectively.
